From EPA's ToxRefDB 2

How the values were obtained:
[1] = system: mouse; details: Carcinogenicity, cd1, Oral, Feed, dose end: 104 week, group: systemic
[2] = system: rat; details: Prenatal developmental toxicity study, sprague dawley, Oral, Gavage/Intubation, dose end: 15 GD
[3] = system: dog; details: Chronic toxicity; beagle; Oral; Feed; dose end: 6 month; group: systemic; systemic / clinical chemistry / cholesterol / cholesterol + systemic / organ weight / liver / absolute + systemic / organ weight / liver / …
[4] = system: mouse; details: Combined chronic toxicity/carcinogenicity, cd1, Oral, Feed, dose end: 104 week, group: systemic
[5] = system: rat; details: Multigenerational reproductive toxicity study, wistar, Oral, Feed, dose end: 2 generation
[6] = system: rabbit; details: Prenatal developmental toxicity study, new zealand white, Oral, Gavage/Intubation, dose end: 19 GD
[7] = system: rat; details: Combined chronic toxicity/carcinogenicity, sprague dawley, Oral, Feed, dose end: 104 week, group: systemic
[8] = system: rat; details: Multigenerational reproductive toxicity study, sprague dawley, Oral, Feed, dose end: 2 generation
[9] = system: rabbit; details: Prenatal developmental toxicity study, other, Oral, Gavage/Intubation, dose end: 18 GD
[10] = system: dog; details: Subchronic oral toxicity in nonrodent, beagle, Feed, dose end: 13 week, group: systemic
[11] = system: mouse; details: Subchronic oral toxicity in rodents, cd1, Feed, dose end: 13 week, group: systemic
[12] = system: rat; details: Subchronic oral toxicity in rodents, sprague dawley, Feed, dose end: 13 week, group: systemic, systemic / clinical chemistry / globulins / globulins + systemic / clinical chemistry / protein / protein + systemic / organ weight / liver…
[13] = systemic / organ weight / liver / absolute + systemic / organ weight / liver / relative to body weight + systemic / pathology gross / spleen…
[14] = systemic / pathology microscopic / liver / [other]
[15] = group: developmental, developmental / developmental malformation / bone / bipartite ossification + developmental / developmental malformation / bone / short …
[16] = group: maternal, systemic / in life observation / body weight / body weight gain
[17] = group: maternal, systemic / in life observation / body weight / body weight gain + systemic / in life observation / food consumption / food consumption
[18] = systemic / organ weight / liver / absolute + systemic / pathology gross / spleen / enlarged + systemic / pathology microscopic / kidney / …
[19] = group: offspring, systemic / in life observation / body weight / offspring (pup) weight gain + systemic / organ weight / liver / relative to body weight
[20] = group: offspring, systemic / in life observation / body weight / offspring (pup) weight gain + systemic / organ weight / liver / relative to body weight + …
[21] = group: parental, systemic / organ weight / kidney / absolute + systemic / organ weight / kidney / relative to body weight + systemic / organ weight / liver…
[22] = group: reproductive, reproductive / reproductive performance / precoital interval / precoital interval
[23] = group: developmental, developmental / developmental malformation / bone / incomplete ossification + developmental / developmental malformation / bone / …
[24] = group: developmental, developmental / developmental malformation / bone / unossified
[25] = group: maternal, reproductive / reproductive performance / aborted / aborted + systemic / in life observation / body weight / body weight gain
[26] = systemic / in life observation / clinical signs / tooth-malocclusion
[27] = group: offspring, developmental / offspring survival late / viability index / viability index + systemic / in life observation / body weight / offspring (pup…
[28] = group: parental, systemic / organ weight / adrenal gland / relative to body weight + systemic / organ weight / adrenal gland / relative to brain weight
[29] = group: parental, systemic / organ weight / adrenal gland / relative to body weight + systemic / organ weight / adrenal gland / relative to brain weight + …
[30] = group: developmental, developmental / developmental malformation / bone / full supernumerary
[31] = group: maternal, systemic / in life observation / body weight / body weight gain + systemic / in life observation / food consumption / food consumption + …
[32] = systemic / clinical chemistry / triglycerides / triglycerides + systemic / in life observation / clinical signs / mucoid stools + systemic…
[33] = systemic / in life observation / clinical signs / vomiting
[34] = systemic / clinical chemistry / alkaline phosphatase (alp/alk) / alkaline phosphatase (alp/alk) + systemic / organ weight / liver / absolute…

## CNc1cnn(-c2cccc(C(F)(F)F)c2)c(=O)c1Cl [Norflurazon]
[1]; [13]
  LOAEL: 58.7 mg/kg/day
  NOAEL: 12.8 mg/kg/day
[1]; [14]
  LEL: 12.8 mg/kg/day
  NEL: < 12.8 mg/kg/day
[2]; [15]
  LEL: 400 mg/kg/day
  LOAEL: > 400 mg/kg/day
  NEL: 200 mg/kg/day
  NOAEL: ≥ 400 mg/kg/day
[2]; [16]
  LOAEL: 100 mg/kg/day
  NOAEL: < 100 mg/kg/day
[2]; [17]
  LEL: 100 mg/kg/day
  NEL: < 100 mg/kg/day
[3]
  LEL: 4.77 mg/kg/day
  LOAEL: 4.77 mg/kg/day
  NEL: 1.58 mg/kg/day
  NOAEL: 1.58 mg/kg/day
[4]; systemic / organ weight / liver / absolute + systemic / organ weight / liver / relative to body weight + systemic / pathology gross / liver…
  NEL: 12.8 mg/kg/day
[4]; [18]
  LEL: 58.7 mg/kg/day
  LOAEL: 58.7 mg/kg/day
  NOAEL: 12.8 mg/kg/day
[5]; [19]
  LEL: 67.8 mg/kg/day
  LOAEL: 67.8 mg/kg/day
[5]; [20]
  NEL: 13.2 mg/kg/day
  NOAEL: 13.2 mg/kg/day
[5]; [21]
  LEL: 50.8 mg/kg/day
  LOAEL: 50.8 mg/kg/day
  NEL: 10.2 mg/kg/day
  NOAEL: 10.2 mg/kg/day
[5]; [22]
  LEL: 102 mg/kg/day
  LOAEL: 102 mg/kg/day
  NEL: 50.8 mg/kg/day
  NOAEL: 50.8 mg/kg/day
[6]; [23]
  LOAEL: 30 mg/kg/day
  NOAEL: 10 mg/kg/day
[6]; [24]
  LEL: 10 mg/kg/day
  NEL: < 10 mg/kg/day
[6]; [25]
  LEL: 60 mg/kg/day
  LOAEL: 60 mg/kg/day
  NEL: 30 mg/kg/day
  NOAEL: 30 mg/kg/day

## CCOc1cc(C(C)(C)C)ccc1C1COC(c2c(F)cccc2F)=N1 (configuration not stated) [Etoxazole]
[7]; systemic / in life observation / clinical signs / tooth nos
  LOAEL: 187 mg/kg/day
[7]; systemic / in life observation / clinical signs / tooth nos + systemic / hematology / blood clotting / blood clotting - activated partial …
  NOAEL: 1.83 mg/kg/day
[7]; [26]
  LEL: 2.07 mg/kg/day
  NEL: < 2.07 mg/kg/day
[8]; group: offspring, developmental / offspring survival late / viability index / viability index
  LOAEL: 157 mg/kg/day
[8]; [27]
  LEL: 157 mg/kg/day
  NEL: 31.6 mg/kg/day
  NOAEL: 31.6 mg/kg/day
[8]; [28]
  NEL: 33.4 mg/kg/day
  NOAEL: 33.4 mg/kg/day
[8]; [29]
  LEL: 139 mg/kg/day
  LOAEL: 139 mg/kg/day
[9]; [30]
  LEL: 1000 mg/kg/day
  LOAEL: 1000 mg/kg/day
  NEL: 200 mg/kg/day
  NOAEL: 200 mg/kg/day
[9]; [31]
  LEL: 1000 mg/kg/day
  LOAEL: 1000 mg/kg/day
  NEL: 200 mg/kg/day
  NOAEL: 200 mg/kg/day
[10]; [32]
  LOAEL: 53.7 mg/kg/day
  NOAEL: 5.33 mg/kg/day
[10]; [33]
  LEL: 5.33 mg/kg/day
  NEL: < 5.33 mg/kg/day
[11]; [34]
  LOAEL: 878 mg/kg/day
  NEL: 55.1 mg/kg/day
  NOAEL: 214 mg/kg/day
[11]; systemic / organ weight / liver / absolute + systemic / organ weight / liver / relative to body weight + systemic / pathology microscopic / …
  LEL: 214 mg/kg/day
[12]
  LEL: 300 mg/kg/day
  LOAEL: 300 mg/kg/day
  NEL: < 300 mg/kg/day
  NOAEL: < 300 mg/kg/day
